# Test results published in ChEMBL document CHEMBL5729134, “Apoptosis signal-regulating kinase 1 inhibitors and methods of use thereof” (2022).
# Target: T1, Mitogen-activated protein kinase kinase kinase 5 (Homo sapiens, UniProt Q99683)
# T1 sequence (Q99683 whole entry): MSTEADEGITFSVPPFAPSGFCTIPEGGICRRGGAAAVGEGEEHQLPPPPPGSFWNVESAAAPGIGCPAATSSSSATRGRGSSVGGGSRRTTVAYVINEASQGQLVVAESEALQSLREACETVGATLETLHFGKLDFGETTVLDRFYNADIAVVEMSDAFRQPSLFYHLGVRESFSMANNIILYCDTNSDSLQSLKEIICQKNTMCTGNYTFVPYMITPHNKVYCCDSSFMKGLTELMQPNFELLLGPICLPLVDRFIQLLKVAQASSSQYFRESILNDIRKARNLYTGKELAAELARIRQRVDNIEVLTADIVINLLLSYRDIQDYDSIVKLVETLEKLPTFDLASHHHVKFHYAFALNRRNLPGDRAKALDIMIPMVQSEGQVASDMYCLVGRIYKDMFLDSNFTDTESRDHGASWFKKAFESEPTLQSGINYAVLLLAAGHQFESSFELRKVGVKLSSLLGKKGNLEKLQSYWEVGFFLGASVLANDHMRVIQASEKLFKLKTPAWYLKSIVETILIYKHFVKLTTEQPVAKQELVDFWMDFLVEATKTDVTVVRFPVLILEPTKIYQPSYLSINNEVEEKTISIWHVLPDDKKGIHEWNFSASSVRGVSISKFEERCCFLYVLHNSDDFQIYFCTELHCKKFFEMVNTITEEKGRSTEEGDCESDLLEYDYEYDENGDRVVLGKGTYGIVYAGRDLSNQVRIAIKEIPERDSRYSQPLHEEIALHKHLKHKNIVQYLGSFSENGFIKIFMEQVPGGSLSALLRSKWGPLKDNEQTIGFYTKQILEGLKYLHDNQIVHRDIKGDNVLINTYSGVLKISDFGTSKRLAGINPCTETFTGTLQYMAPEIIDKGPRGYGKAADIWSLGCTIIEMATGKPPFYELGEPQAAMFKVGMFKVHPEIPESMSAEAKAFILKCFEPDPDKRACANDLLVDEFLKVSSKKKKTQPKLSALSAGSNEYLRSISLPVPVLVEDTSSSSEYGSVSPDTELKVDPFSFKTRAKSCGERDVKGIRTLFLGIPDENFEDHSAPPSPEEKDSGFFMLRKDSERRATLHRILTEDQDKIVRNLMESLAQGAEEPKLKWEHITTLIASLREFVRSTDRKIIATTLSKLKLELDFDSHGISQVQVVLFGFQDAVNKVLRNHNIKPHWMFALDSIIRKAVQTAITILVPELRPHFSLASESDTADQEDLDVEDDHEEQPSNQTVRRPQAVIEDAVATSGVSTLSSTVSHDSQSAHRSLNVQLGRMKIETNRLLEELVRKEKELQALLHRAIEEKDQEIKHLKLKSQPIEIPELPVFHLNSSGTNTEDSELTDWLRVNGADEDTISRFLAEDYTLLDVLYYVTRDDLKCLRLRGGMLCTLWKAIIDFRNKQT
# Assay: HTRF KinEASE Assay : ASK1 was purchased from Thermofisher (Catalogue #PV4011), ATP was purchased from Sigma (Catalogue #A7699), HTRF® KinEASE Assay System was obtained from Cisbio (Bedford, Mass.). ½ Area plate was purchased from Perkin Elmer (Catalogue ##6005560). HTRF® KinEASE-STK is a generic method for measuring serine/threonine kinase activities using a time-resolved fluorescence resonance energy transfer (TR-FRET) immunoassay. The IC50 value for each compound was determined in the presence of compound (various concentration from 0 to 10 μM) and a fixed amount of ATP and peptide substrates. The test compound, 1 μM STK3 peptide substrate, and […] are incubated with kinase reaction buffer containing 50 mM HEPES Ph 7.5, 0.01% BRIJ-35, 10 mM MgCl2, and 1 mM EGTA for 30 minutes. 100 μM ATP is added to start kinase reaction and incubated for 3 hours. The STK3-antibody labeled with Eu3+-Cryptate and 125 nM streptavidin-XL665 are mixed in a single addition with stop reagents provided by the Cisbio kit used to stop the kinase reaction. Fluorescence is detected using an Envision Multilabeled 2014 reader from PerkinElmer. The Fluorescence is measured at 615 nm (Cryptate) and 665 nm (XL665) and a ratio of 665 nm/615 nm is calculated for each well. The resulting TR-FRET is proportional to the phosphorylation level. Staurosporine was used as the positive control. IC50 was determined by Xlfit 5.3.
row,Compound,IC50 [nM]
1,COc1cc2c(cc1C(=O)Nc1cccc(-c3nnnn3[C@H](C)CO)n1)CN(C(=O)OCC(F)(F)F)CC2,1.25 to 10
2,CCNC(=O)N1CCc2cc(OC)c(C(=O)Nc3cccc(-c4nnnn4[C@H](C)CO)n3)cc2C1,1.25 to 10
3,COc1cc2c(cc1C(=O)Nc1cccc(-c3nnnn3[C@H](C)CO)n1)CN(C(=O)OC(C)C)CC2,< 1.25
4,COc1cc2c(cc1C(=O)Nc1cccc(-c3nnnn3[C@H](C)CO)n1)CN(C(=O)C(C)(C)CO)CC2,1.25 to 10
5,COc1cc2c(cc1C(=O)Nc1cccc(-c3nnnn3[C@H](C)CO)n1)CN(C)CC2,1.25 to 10
6,COc1cc2c(cc1C(=O)Nc1cccc(-c3nncn3[C@H](C)CO)n1)CN(C(=O)N1CCCC1)CC2,< 1.25
7,COc1cc2c(cc1C(=O)Nc1cccc(-c3nnnn3[C@H](C)CO)n1)CN(S(=O)(=O)CCC(F)(F)F)CC2,1.25 to 10
8,COc1cc2c(cc1C(=O)Nc1cccc(-c3nncn3[C@H](C)CO)n1)CN(C(C)C)CC2,< 1.25
9,COc1cc2c(cc1C(=O)Nc1cccc(-c3nnnn3[C@H](C)CO)n1)CN(C(C)C)CC2,< 1.25
10,COc1cc2c(cc1C(=O)Nc1cccc(-c3nnnn3[C@@H]3CCC[C@@H]3O)n1)CN(C(=O)OCC(F)(F)F)CC2,1.25 to 10
11,COc1cc2c(cc1C(=O)Nc1cccc(-c3nnnn3[C@H](C)CO)n1)CN(S(=O)(=O)C1CC1)CC2,< 1.25

# Other lines, results leading:
row,IC50 [nM],Compound
1,< 1.25,COc1cc2c(cc1C(=O)Nc1cccc(-c3nnnn3[C@H](C)CO)n1)CN(C(=O)c1cnn(C)c1)CC2
2,< 1.25,COc1cc2c(cc1C(=O)Nc1cccc(-c3nnnn3[C@H](C)CO)n1)CN(C(=O)OCc1ccccc1)CC2
3,< 1.25,COc1cc2c(cc1C(=O)Nc1cccc(-c3nnnn3[C@H](C)CO)n1)CN(C(=O)c1ccc(F)cc1)CC2
4,< 1.25,COc1cc2c(cc1C(=O)Nc1cccc(-c3nnnn3[C@H](C)CO)n1)CN(C(=O)C(C)(C)C)CC2
5,< 1.25,COc1cc2c(cc1C(=O)Nc1cccc(-c3nnnn3[C@H](C)CO)n1)CN(C(=O)N1CCCC1)CC2
6,< 1.25,COc1cc2c(cc1C(=O)Nc1cccc(-c3nnnn3[C@H](C)CO)n1)CN(C(=O)C[C@H](C)O)CC2
7,1.25 to 10,COc1cc2c(cc1C(=O)Nc1cccc(-c3nnnn3[C@H](C)CO)n1)CN(C(=O)c1cn(C3CC3)cn1)CC2
8,1.25 to 10,CCOC(=O)N1CCc2cc(OC)c(C(=O)Nc3cccc(-c4nnnn4[C@H](C)CO)n3)cc2C1
